“And” between values parts separate entries of the source, which are not always exact repeats. Equal values may be shown once. Read-outs that look alike come from different tables or passages of the source. One block for each compound: values may come before it.
Key:
c-Myc = conditions: literature; cited from earlier work
BRD4 = BRD4 (Homo sapiens (Human), UniProt O60885); test: Differential Scanning Fluorimetry (DSF), stability of BRD4 upon ligand binding; conditions: for DSF ΔTm / IC50: Table 1; for IC50: estimated from DSF; for DSF: BRD4 ΔTm: 100 μM protein, 4 μM compound and 2% DMSO, Table 4
UKE-1 = test: Cellular IC50, UKE-1; type: cell-based; conditions: UKE1
BRD4-1 = BRD4-1 (Homo sapiens (Human), UniProt O60885); test: Alpha Screen (Reaction Biology); type: binding; conditions: Reaction Biology data
MV4-11 AML cells [1] = test: Cellular IC50, MV-4-11; type: cell-based; conditions: Homo sapiens
Experimental: Cellular activity of promising compounds is assessed using MM.1S and MV4-11 AML cells using c-Myc levels as biomarker (6-12 hr treatment) and antiproliferative activity (48-72 hr treatment) as described (Ciceri et al., Dual kinase-bromodomain inhibitors for rationally designed polypharmacology. Nat Chem Biol 2014).

BRDT-1 = BRDT-1 (Homo sapiens (Human), UniProt Q58F21); test: Alpha Screen (Reaction Biology); type: binding; conditions: Reaction Biology data
MM.1S cells = test: Cellular IC50 (cell survival, MTT), MM.1S; type: cell-based
From the text: Increased anti-proliferative effects are correlated with an early, strong reduction of both pSTAT2 and c-Myc levels. The inhibitors highlighted are the most promising equipotent dual BET-JAK2 inhibitors of this series.

BRD4-2 = BRD4-2 (Homo sapiens (Human), UniProt O60885); test: Alpha Screen (Reaction Biology); type: binding; conditions: Reaction Biology data; value in parentheses
HEK293 = test: Cellular IC50, HEK293; type: cell-based; conditions: Homo sapiens
MV4-11 AML cells [2] = conditions: literature; read-out: IC50, inhibition of proliferation of MV4-11 AML cells; cited from earlier work
JAK2 = JAK2 (Homo sapiens (Human), UniProt O60674); test: HotSpot Kinase assay (Reaction Biology); type: biochemical; conditions: Reaction Biology data
Sequence of JAK2 (O60674 whole entry): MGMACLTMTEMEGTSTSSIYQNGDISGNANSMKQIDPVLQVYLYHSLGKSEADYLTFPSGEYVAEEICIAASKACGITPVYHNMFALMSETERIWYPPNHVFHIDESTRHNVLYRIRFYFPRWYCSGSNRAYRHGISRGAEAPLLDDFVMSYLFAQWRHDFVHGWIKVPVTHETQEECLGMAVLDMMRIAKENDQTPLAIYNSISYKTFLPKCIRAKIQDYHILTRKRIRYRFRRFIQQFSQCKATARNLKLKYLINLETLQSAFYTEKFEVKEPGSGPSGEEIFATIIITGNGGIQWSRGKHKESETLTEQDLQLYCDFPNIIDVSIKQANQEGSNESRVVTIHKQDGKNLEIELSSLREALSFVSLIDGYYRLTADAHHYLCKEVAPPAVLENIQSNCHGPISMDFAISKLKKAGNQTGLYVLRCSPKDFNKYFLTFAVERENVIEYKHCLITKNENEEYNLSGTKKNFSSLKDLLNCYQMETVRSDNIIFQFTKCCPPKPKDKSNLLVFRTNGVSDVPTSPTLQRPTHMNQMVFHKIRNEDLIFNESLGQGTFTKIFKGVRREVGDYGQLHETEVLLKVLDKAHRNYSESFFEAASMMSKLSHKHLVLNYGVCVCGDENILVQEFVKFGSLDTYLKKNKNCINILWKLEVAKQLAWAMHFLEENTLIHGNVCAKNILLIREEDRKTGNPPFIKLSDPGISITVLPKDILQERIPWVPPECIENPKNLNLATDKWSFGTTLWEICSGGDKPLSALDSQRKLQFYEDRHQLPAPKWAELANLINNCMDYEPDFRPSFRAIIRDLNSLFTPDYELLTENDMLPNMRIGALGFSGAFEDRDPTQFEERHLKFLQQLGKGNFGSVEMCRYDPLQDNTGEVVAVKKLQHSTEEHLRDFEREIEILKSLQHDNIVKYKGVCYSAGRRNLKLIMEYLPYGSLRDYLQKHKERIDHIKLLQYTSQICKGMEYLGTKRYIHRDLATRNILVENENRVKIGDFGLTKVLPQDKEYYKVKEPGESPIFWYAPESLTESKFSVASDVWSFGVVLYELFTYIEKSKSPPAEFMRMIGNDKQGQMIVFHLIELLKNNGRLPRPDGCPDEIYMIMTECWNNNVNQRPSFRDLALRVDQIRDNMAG

Saos-2 = test: Cellular IC50, Saos-2; type: cell-based; conditions: Homo sapiens
Solubility in PBS buffer = type: physicochemical
[3] = Homo sapiens, MM1.S, read-out: Cellular IC50 MM.1S

Structure (SMILES): Cc1cnc(Nc2ccc(N3CCN(C)CC3)cc2)nc1Nc1cccc(S(=O)(=O)NC(C)(C)C)c1 [TG101209, reference compound]
downregulation of c-Myc in MM.1S cells (c-Myc): strong downregulation of c-Myc
DSF ΔTm (BRD4): 6.83 ± 0.129 °C and 7.55 ± 0.154 °C

Structure (SMILES): Cc1cnc(Nc2ccc(C(=O)NC3CCN(C)CC3)c(F)c2)nc1Nc1ccc(Cl)c(NS(=O)(=O)C(C)(C)C)c1
IC50 (UKE-1): 225 nM
IC50 (BRD4-1): 9.55 nM
IC50 (MV4-11 AML cells [1]): 38.3 nM
IC50 (BRDT-1): 22.5 nM

Structure (SMILES): Cc1cnc(Nc2ccc(N3CCN(C)CC3)cc2)nc1Nc1cccc(NS(=O)(=O)C(C)(C)C)c1
IC50 (MV4-11 AML cells [1]): 56.7 nM
IC50 (MM.1S cells; [3]): 399 nM
IC50 (BRD4-2): 23.6 nM

Structure (SMILES): CCCN(C)c1ccc(Nc2nc3c(c(Nc4cccc(S(N)(=O)=O)c4)n2)COC3)cc1
DSF ΔTm (BRD4): 2.9 ± 0.084 °C
IC50 (BRD4): 2300 nM

Structure (SMILES): CCOC(=O)c1cnc(Nc2ccc(N3CCN(C)CC3)cc2)nc1Nc1cccc(S(=O)(=O)NC(C)(C)C)c1
IC50 (BRD4): > 20000 nM

Structure (SMILES): Cc1nc(Nc2ccc(N3CCN(C)CC3)cc2)nc(Nc2cccc(S(=O)(=O)NC(C)C)c2)c1C
DSF ΔTm (BRD4): 5.3 ± 0.064 °C
IC50 (BRD4): 370 nM
IC50 (HEK293): 120000 nM

Structure (SMILES): Cc1cnc(Nc2ccc(OCCN3CCCC3)cc2)nc1Nc1cccc(S(=O)(=O)NC(C)(C)C)c1 [TG101348]
downregulation of c-Myc in MM.1S cells (c-Myc): strong downregulation of c-Myc
IC50 (MV4-11 AML cells [2]): 79 nM

Structure (SMILES): Cc1cnc(Nc2ccc(N3CCN(C)CC3)cc2)nc1Nc1ccc(Cl)c(NS(=O)(=O)C(C)(C)C)c1 [drawing 146]
IC50 (MM.1S cells; read-out: MM.1S IC50): 142 nM

Structure (SMILES): Cc1cnc(Nc2ccc(N3CCN(C)CC3)cc2)nc1Nc1ccc(Cl)c(NS(=O)(=O)C(C)(C)C)c1 [drawing 232]
IC50 (BRD4-1): 25 nM
IC50 (MM.1S cells; [3]): 142 nM
IC50 (BRD4-2): 27.3 nM

Structure (SMILES): CC[C@@H]1C(=O)N(C)c2cnc(Nc3ccc(C(=O)NC4CCN(C)CC4)cc3OC)nc2N1C1CCCC1 [BI2536]
downregulation of c-Myc in MM.1S cells (c-Myc): strong downregulation of c-Myc

Now from value to compound, other results behind:

DSF ΔTm (BRD4): 12.6 ± 0.069 °C
Structure (SMILES): Cc1cnc(Nc2ccc(N3CCN(C)CC3)c(F)c2)nc1Nc1ccc(Cl)c(NS(=O)(=O)C(C)(C)C)c1 [drawing 168]
IC50 (MM.1S cells; read-out: MM.1S IC50): 64 nM and 66 nM

DSF ΔTm (BRD4): 11.2 ± 0.15 °C
Structure (SMILES): Cc1cnc(Nc2ccc(N3CCN(C)CC3)c(F)c2)nc1Nc1cccc(NS(=O)(=O)C(C)(C)C)c1 [drawing 167]
IC50 (MM.1S cells; read-out: MM.1S IC50): 146 nM

IC50 (UKE-1): 294 nM
DSF: BRD4 ΔTm (BRD4): 12.6 ± 0.06 °C
IC50 (MV4-11 AML cells [1]): 53.2 nM
IC50 (JAK2): 3.36 nM
IC50 (Saos-2): 320 nM
Structure (SMILES): Cc1cnc(Nc2ccc(N3CCN(C)CC3)c(F)c2)nc1Nc1ccc(Cl)c(NS(=O)(=O)C(C)(C)C)c1 [drawing 230]
IC50 (MM.1S cells; [3]): 66 nM

IC50 (UKE-1): 200 nM
DSF: BRD4 ΔTm (BRD4): 11.2 ± 0.15 °C
IC50 (MV4-11 AML cells [1]): 26.8 nM
IC50 (Saos-2): 133 nM
Structure (SMILES): Cc1cnc(Nc2ccc(N3CCN(C)CC3)c(F)c2)nc1Nc1cccc(NS(=O)(=O)C(C)(C)C)c1 [drawing 231]
IC50 (MM.1S cells; [3]): 146 nM

Solubility (Solubility in PBS buffer; in 1 mL PBS buffer (15% HPCD)): > 14.4 mg/mL
Solubility (Solubility in PBS buffer; in 1 mL PBS buffer (~9.3% DMSO)): 0.416 mg
Structure (SMILES): Cc1cnc(Nc2ccc(N3CCN(C)CC3)cc2)nc1Nc1ccc(Cl)c(NS(=O)(=O)C(C)(C)C)c1 [SG3-014B2.MSA]

From patent US11643396B2, “BRD4-kinase inhibitors as cancer therapeutics” (H. LEE MOFFITT CANCER CENTER AND RESEARCH INSTITUTE, INC., priority 2015, dated 2023)
